Data published in patent US20240239755A1, “SUBSTITUTED PYRIDAZINONES, SALTS OR N-OXIDES THEREOF AND THEIR USE AS HERBICIDALLY ACTIVE SUBSTANCES” (Bayer Aktiengesellschaft, priority 2021, published 2024).

Experiments:
Format in all cases: in vivo
Stellaria media (STEME) [1] = experiment: Herbicidal post-emergence action, 1280 g/ha (Table B9); conditions: visual assessment after ca. 3 weeks vs untreated controls
Text: (§1) Seeds of mono- and dicotyledonous weed plants were sown in plastic pots (double sowings with one species of mono- and one species of dicotyledonous weed plants per pot), in sandy loam, covered with soil and grown under controlled growth conditions. 2 to 3 weeks after sowing, the test plants were sprayed in the single-leaf stage. The compounds according to the invention, formulated in the form of wettable powders (WP) or as emulsifiable concentrates (EC), were sprayed onto the green plant parts as an aqueous suspension or as an emulsion, with the addition of 0.5% of an additive, at an application rate of 600 litres of water per hectare (converted). The test plants were placed in the greenhouse for ca. 3 weeks under optimum growth conditions, and then the effect of the preparations was assessed visually in comparison with untreated controls (herbicidal effect in percent (%): 100% effect=plants have died, 0% effect=as control plants). Tables B1 to B11 below, show the effects of selected compounds of the general formula (I) according to Table 1 on various harmful plants using an application rate corresponding to 1280 g/ha obtained by the experimental procedure mentioned above.

Kochia scoparia (KCHSC) [2] = experiment: Herbicidal pre-emergence action, 1280 g/ha (Table A4); conditions: visual grading after ca. 3 weeks vs untreated controls
Text: (§2) Seeds of mono- and dicotyledonous weed plants were sown in plastic pots (double sowings with one species of mono- and one species of dicotyledonous weed plants per pot), in sandy loam, and covered with soil. The compounds according to the invention, formulated in the form of wettable powders (WP) or as emulsifiable concentrates (EC), were applied to the surface of the covering soil as an aqueous suspension or as an emulsion, with the addition of 0.5% of an additive, at an application rate of 600 litres of water per hectare (converted). Following treatment, the pots were placed in a greenhouse and kept under optimum growth conditions for the test plants. The visual grading of the damage to the test plants was carried out after ca. 3 weeks in comparison to untreated controls (herbicidal effect in percent (%): 100% effect=plants have died, 0% effect=as control plants). Tables A1 to A11 below, show the effects of selected compounds of the general formula (I) according to Table 1 on various harmful plants and an application rate corresponding to 1280 g/ha obtained by the experimental procedure mentioned above.

Stellaria media (STEME) [3] = experiment: Herbicidal post-emergence action, 320 g/ha, STEME; conditions: visual grading after ca. 3 weeks
Text: as §1, with “plants).” for “plants). Tables B1 to B11 below, show the effects of selected compounds of the general formula (I) according to Table 1 on various harmful plants using an application rate corresponding to 1280 g/ha obtained by the experimental procedure mentioned above.”
(§3) Tables D1 to D8 below, show the effects of selected compounds of the general formula (I) according to Table 1 on various harmful plants using an application rate corresponding to 320 g/ha obtained by the experimental procedure mentioned above.

[4] = system: Abutilon theophrasti (ABUTH); experiment: Herbicidal post-emergence action, 1280 g/ha (Table B1); conditions: visual assessment after ca. 3 weeks vs untreated controls
Text: as §1

[5] = system: Amaranthus retroflexus (AMARE); experiment: Herbicidal pre-emergence action, 1280 g/ha (Table A11); conditions: visual grading after ca. 3 weeks vs untreated controls
Text: as §2

[6] = system: Amaranthus retroflexus (AMARE); experiment: Herbicidal post-emergence action, 1280 g/ha, AMARE; conditions: visual grading vs untreated controls
Text: as §1, with “plants).” for “plants). Tables B1 to B11 below, show the effects of selected compounds of the general formula (I) according to Table 1 on various harmful plants using an application rate corresponding to 1280 g/ha obtained by the experimental procedure mentioned above.”
(§4) Tables B1 to B11 below, show the effects of selected compounds of the general formula (I) according to Table 1 on various harmful plants using an application rate corresponding to 1280 g/ha obtained by the experimental procedure mentioned above.

Stellaria media (STEME) [7] = experiment: Herbicidal pre-emergence action, 1280 g/ha (Table A9); conditions: visual grading after ca. 3 weeks vs untreated controls
Text: as §2

[8] = system: Matricaria inodora (MATIN); experiment: Herbicidal pre-emergence action, 1280 g/ha (Table A6); conditions: visual grading after ca. 3 weeks vs untreated controls
Text: as §2

Stellaria media (STEME) [9] = experiment: Herbicidal pre-emergence action, 320 g/ha, STEME; conditions: visual grading after ca. 3 weeks
Text: as §2, with “plants).” for “plants). Tables A1 to A11 below, show the effects of selected compounds of the general formula (I) according to Table 1 on various harmful plants and an application rate corresponding to 1280 g/ha obtained by the experimental procedure mentioned above.”
Tables C1 to C6 below, show the effects of selected compounds of the general formula (I) according to Table 1 on various harmful plants using an application rate corresponding to 320 g/ha obtained by the experimental procedure mentioned above.

[10] = system: Matricaria inodora (MATIN); experiment: Herbicidal post-emergence action, 1280 g/ha (Table B6); conditions: visual assessment after ca. 3 weeks vs untreated controls
Text: as §1

Lolium rigidum (LOLRI) = experiment: Herbicidal pre-emergence action, 1280 g/ha (Table A5); conditions: visual grading after ca. 3 weeks vs untreated controls
Text: as §2

Kochia scoparia (KCHSC) [11] = experiment: Herbicidal post-emergence action, 1280 g/ha (Table B4); conditions: visual assessment after ca. 3 weeks vs untreated controls
Text: as §1

[12] = system: Abutilon theophrasti (ABUTH); experiment: Herbicidal post-emergence action, 320 g/ha, ABUTH; conditions: visual grading after ca. 3 weeks
Text: as §1, with “plants).” for “plants). Tables B1 to B11 below, show the effects of selected compounds of the general formula (I) according to Table 1 on various harmful plants using an application rate corresponding to 1280 g/ha obtained by the experimental procedure mentioned above.”
as §3

Veronica persica (VERPE) = experiment: Herbicidal post-emergence action, 1280 g/ha, VERPE; conditions: visual grading vs untreated controls
Text: as §1, with “plants).” for “plants). Tables B1 to B11 below, show the effects of selected compounds of the general formula (I) according to Table 1 on various harmful plants using an application rate corresponding to 1280 g/ha obtained by the experimental procedure mentioned above.”
as §4

[13] = system: Amaranthus retroflexus (AMARE); experiment: Herbicidal post-emergence action, 320 g/ha, AMARE; conditions: visual grading after ca. 3 weeks
Text: as §1, with “plants).” for “plants). Tables B1 to B11 below, show the effects of selected compounds of the general formula (I) according to Table 1 on various harmful plants using an application rate corresponding to 1280 g/ha obtained by the experimental procedure mentioned above.”
as §3

SMILES: Cc1nn(C)c(=O)c(Oc2cccc(Cl)c2)c1O [Example I-004]
- herbicidal effect STEME (Stellaria media (STEME) [1]): 100%
- herbicidal effect KCHSC (Kochia scoparia (KCHSC) [2]): 90%
- herbicidal effect STEME (Stellaria media (STEME) [3]): 90%
- herbicidal effect ABUTH [4]: 90%
- herbicidal effect AMARE [5]: 90%

SMILES: CCOC(=O)Oc1c(C)nn(C)c(=O)c1Oc1ccc(C)cc1C1CC1 [Example I-038]
- herbicidal effect ABUTH [4]: 90%
- herbicidal effect AMARE [6]: 90%

SMILES: Cc1cccc(Cl)c1Oc1c(O)c(C)nn(C)c1=O [Example I-023]
- herbicidal effect STEME (Stellaria media (STEME) [1]): 90%
- herbicidal effect STEME (Stellaria media (STEME) [7]): 90%
- herbicidal effect MATIN [8]: 90%
- herbicidal effect AMARE [5]: 90%
- herbicidal effect AMARE [6]: 90%

SMILES: Cc1nn(C)c(=O)c(Oc2cccc(F)c2Cl)c1O [Example I-025]
- herbicidal effect STEME (Stellaria media (STEME) [7]): 100%
- herbicidal effect STEME (Stellaria media (STEME) [9]): 100%
- herbicidal effect MATIN [8]: 100%

SMILES: Cc1nn(C)c(=O)c(Oc2cc(F)cc(F)c2Br)c1O [Example I-090]
- herbicidal effect STEME (Stellaria media (STEME) [1]): 90%
- herbicidal effect MATIN [10]: 90%
- herbicidal effect LOLRI (Lolium rigidum (LOLRI)): 90%
- herbicidal effect STEME (Stellaria media (STEME) [7]): 100%
- herbicidal effect STEME (Stellaria media (STEME) [9]): 90%
- herbicidal effect MATIN [8]: 90%
- herbicidal effect AMARE [5]: 90%
- herbicidal effect AMARE [6]: 90%

SMILES: Cc1ccc(Oc2c(O)c(C)nn(C)c2=O)c(C2CC2)c1 [Example I-037]
- herbicidal effect STEME (Stellaria media (STEME) [1]): 90%

SMILES: Cc1nn(C)c(=O)c(Oc2cccc(F)c2C2CC2)c1O [Example I-073]
- herbicidal effect STEME (Stellaria media (STEME) [1]): 100%
- herbicidal effect MATIN [10]: 90%
- herbicidal effect KCHSC (Kochia scoparia (KCHSC) [11]): 90%
- herbicidal effect LOLRI (Lolium rigidum (LOLRI)): 90%
- herbicidal effect ABUTH [4]: 100%
- herbicidal effect ABUTH [12]: 100%
- herbicidal effect STEME (Stellaria media (STEME) [7]): 90%
- herbicidal effect STEME (Stellaria media (STEME) [9]): 90%
- herbicidal effect MATIN [8]: 90%
- herbicidal effect AMARE [6]: 90%

SMILES: COc1ccccc1Oc1c(O)c(C)nn(C)c1=O [Example I-024]
- herbicidal effect STEME (Stellaria media (STEME) [1]): 90%
- herbicidal effect LOLRI (Lolium rigidum (LOLRI)): 90%
- herbicidal effect VERPE (Veronica persica (VERPE)): 90%
- herbicidal effect STEME (Stellaria media (STEME) [7]): 90%
- herbicidal effect AMARE [6]: 90%

SMILES: CCOC(=O)Oc1c(C)nn(C)c(=O)c1Oc1cccc(C)c1C1CC1 [Example I-066]
- herbicidal effect STEME (Stellaria media (STEME) [1]): 100%
- herbicidal effect MATIN [10]: 90%
- herbicidal effect ABUTH [4]: 90%
- herbicidal effect MATIN [8]: 90%
- herbicidal effect AMARE [5]: 100%

SMILES: Cc1nn(C)c(=O)c(Oc2cc(Cl)cc(Cl)c2Cl)c1OC(=O)C(C)C [Example I-100]
- herbicidal effect STEME (Stellaria media (STEME) [1]): 100%
- herbicidal effect LOLRI (Lolium rigidum (LOLRI)): 90%
- herbicidal effect STEME (Stellaria media (STEME) [3]): 90%
- herbicidal effect ABUTH [4]: 90%
- herbicidal effect STEME (Stellaria media (STEME) [7]): 100%
- herbicidal effect STEME (Stellaria media (STEME) [9]): 100%
- herbicidal effect AMARE [6]: 90%

SMILES: Cc1nn(C)c(=O)c(Oc2c(F)cccc2C2CC2)c1O [Example I-084]
- herbicidal effect STEME (Stellaria media (STEME) [1]): 90%
- herbicidal effect KCHSC (Kochia scoparia (KCHSC) [11]): 90%
- herbicidal effect LOLRI (Lolium rigidum (LOLRI)): 90%
- herbicidal effect VERPE (Veronica persica (VERPE)): 90%
- herbicidal effect ABUTH [4]: 90%
- herbicidal effect AMARE [13]: 90%
- herbicidal effect AMARE [6]: 90%

SMILES: Cc1nn(C)c(=O)c(Oc2cc(F)ccc2Br)c1OC(=O)C(C)C [Example I-089]
- herbicidal effect MATIN [10]: 90%
- herbicidal effect LOLRI (Lolium rigidum (LOLRI)): 90%
- herbicidal effect ABUTH [4]: 90%
- herbicidal effect STEME (Stellaria media (STEME) [7]): 90%
- herbicidal effect MATIN [8]: 100%
- herbicidal effect AMARE [6]: 100%

SMILES: Cc1ccc(C2CC2)c(Oc2c(O)c(C)nn(C)c2=O)c1 [Example I-039]
- herbicidal effect STEME (Stellaria media (STEME) [1]): 90%
- herbicidal effect AMARE [5]: 90%
- herbicidal effect AMARE [6]: 90%

SMILES: CCOC(=O)Oc1c(C)nn(C)c(=O)c1Oc1cc(C)ccc1C1CC1 [Example I-040]
- herbicidal effect AMARE [6]: 90%

SMILES: Cc1nn(C)c(=O)c(Oc2cccc(C(F)(F)F)c2)c1O [Example I-005]
- herbicidal effect STEME (Stellaria media (STEME) [1]): 90%
- herbicidal effect AMARE [5]: 100%
- herbicidal effect AMARE [13]: 90%
- herbicidal effect AMARE [6]: 100%

SMILES: Cc1nn(C)c(=O)c(Oc2cc(F)cc(F)c2Br)c1OC(=O)C(C)C [Example I-099]
- herbicidal effect STEME (Stellaria media (STEME) [1]): 90%
- herbicidal effect MATIN [10]: 90%
- herbicidal effect KCHSC (Kochia scoparia (KCHSC) [11]): 90%
- herbicidal effect VERPE (Veronica persica (VERPE)): 90%
- herbicidal effect STEME (Stellaria media (STEME) [3]): 90%
- herbicidal effect ABUTH [4]: 100%
- herbicidal effect STEME (Stellaria media (STEME) [7]): 90%
- herbicidal effect STEME (Stellaria media (STEME) [9]): 90%
- herbicidal effect MATIN [8]: 90%
- herbicidal effect AMARE [6]: 90%

SMILES: Cc1nn(C)c(=O)c(Oc2ccccc2OC(F)F)c1O [Example I-082]
- herbicidal effect STEME (Stellaria media (STEME) [1]): 100%
- herbicidal effect MATIN [10]: 90%
- herbicidal effect LOLRI (Lolium rigidum (LOLRI)): 90%
- herbicidal effect VERPE (Veronica persica (VERPE)): 90%
- herbicidal effect STEME (Stellaria media (STEME) [3]): 90%
- herbicidal effect ABUTH [4]: 100%
- herbicidal effect ABUTH [12]: 90%
- herbicidal effect STEME (Stellaria media (STEME) [7]): 90%
- herbicidal effect MATIN [8]: 90%
- herbicidal effect AMARE [6]: 90%

SMILES: Cc1nn(C)c(=O)c(Oc2ccccc2)c1O [Example I-001]
- herbicidal effect AMARE [5]: 90%
